Results: the CheMixHub ionic liquid set

Assay: xn = mol fraction of the nth substance listed

O=C([O-])CC(O)(CC(=O)[O-])C(=O)[O-].[Li+].[Li+].[Li+] + CC[n+]1ccn(C)c1.O=S(=O)([O-])O + O
viscosity [mPa·s], 101 kPa
Conditions	293.15 K	298.15 K	303.15 K	308.15 K	313.15 K
x1 = 0.0003639, x2 = 0	1.022	0.927	0.835	0.757	0.691
x1 = 0.0007293, x2 = 0	1.043	0.946	0.854	0.776	0.712
x1 = 0.0008074, x2 = 0.0007287	1.082	1.003	0.885	0.81	0.751
x1 = 0.0008123, x2 = 0.000664	1.069	0.99	0.883	0.811	0.734
x1 = 0.0008236, x2 = 0.0009246	1.112	1.003	0.906	0.825	0.745
x1 = 0.0009579, x2 = 0.0007286	1.09	1.01	0.892	0.817	0.758
x1 = 0.000959, x2 = 0.0006639	1.077	0.996	0.89	0.818	0.741
x1 = 0.001091, x2 = 0	1.063	0.961	0.869	0.793	0.729
x1 = 0.001134, x2 = 0.0009243	1.13	1.017	0.92	0.84	0.761
x1 = 0.001339, x2 = 0.0009241	1.142	1.025	0.929	0.849	0.771
x1 = 0.001445, x2 = 0	1.083	0.974	0.883	0.807	0.745
x1 = 0.001498, x2 = 0.0007282	1.121	1.032	0.914	0.841	0.784
x1 = 0.001582, x2 = 0.0006634	1.113	1.021	0.915	0.845	0.769
x1 = 0.001715, x2 = 0.000728	1.134	1.04	0.923	0.85	0.794
x1 = 0.001743, x2 = 0.0006633	1.122	1.026	0.922	0.852	0.776
x1 = 0.001787, x2 = 0.0009237	1.169	1.042	0.947	0.869	0.791
x1 = 0.001793, x2 = 0	1.102	0.986	0.896	0.821	0.759
x1 = 0.002226, x2 = 0	1.126	1	0.911	0.837	0.777
x1 = 0.002241, x2 = 0.000663	1.15	1.044	0.94	0.871	0.797
x1 = 0.002241, x2 = 0.0007276	1.164	1.059	0.942	0.871	0.817
x1 = 0.002293, x2 = 0.0009233	1.198	1.061	0.967	0.89	0.814
x1 = 0.002592, x2 = 0.0006628	1.17	1.055	0.952	0.884	0.811
x1 = 0.002633, x2 = 0.0007274	1.186	1.073	0.956	0.886	0.833
x1 = 0.002689, x2 = 0.0009229	1.221	1.074	0.981	0.906	0.831
x1 = 0.002748, x2 = 0	1.155	1.016	0.928	0.855	0.797

O=C([O-])CC(O)(CC(=O)[O-])C(=O)[O-].[NH4+].[NH4+].[NH4+] + CC[n+]1ccn(C)c1.O=S(=O)([O-])O + O
viscosity [mPa·s], 101 kPa
Conditions	x1 = 0.0003657, x2 = 0	x1 = 0.0007347, x2 = 0	x1 = 0.001087, x2 = 0	x1 = 0.001443, x2 = 0	x1 = 0.00179, x2 = 0	x1 = 0.002235, x2 = 0	x1 = 0.00271, x2 = 0
293.15 K	1.022	1.043	1.063	1.083	1.102	1.127	1.153
298.15 K	0.923	0.939	0.953	0.965	0.976	0.989	1.002
303.15 K	0.829	0.846	0.859	0.872	0.883	0.897	0.911
308.15 K	0.75	0.768	0.782	0.795	0.807	0.822	0.837
313.15 K	0.684	0.702	0.717	0.731	0.744	0.76	0.776

c1c[nH]cn1 + CC[n+]1ccn(C)c1.[Cl-]
298.2 K, 100 kPa
Conditions	viscosity [mPa·s]
x2 = 0.25	38.7
x2 = 0.5	82.5

CCCCCC[n+]1ccn(C)c1.[Cl-] + CN1CCCC1=O
100 kPa
Conditions	viscosity [mPa·s]
293.15 K, x2 = 0.4223	288
298.15 K, x2 = 0.2211	1042
298.15 K, x2 = 0.3181	467
298.15 K, x2 = 0.5271	92.7
298.15 K, x2 = 0.718	19.13
298.15 K, x2 = 0.8139	8.49
303.15 K, x2 = 0.4223	152
308.15 K, x2 = 0.2211	481
308.15 K, x2 = 0.718	13.69
308.15 K, x2 = 0.8139	6.46
313.15 K, x2 = 0.6327	21.54
313.15 K, x2 = 0.718	11.59
313.15 K, x2 = 0.9083	2.78
323.15 K, x2 = 0.3181	102.2
323.15 K, x2 = 0.4223	54.5
328.15 K, x2 = 0.4223	44.4
328.15 K, x2 = 0.718	7.66
333.15 K, x2 = 0.9083	2.041

CCCCCC[n+]1ccn(C)c1.[Cl-] + CN(C)C=O
101 kPa
Conditions	viscosity [mPa·s]
288.15 K, x2 = 0.2751	230
308.15 K, x2 = 0.6856	9.1
